Measured values published in ChEMBL document CHEMBL1201862, “PubChem BioAssay data set” (2004).
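Each compound was tested at five concentrations against cells in 96-well plates for 48 hours. Abbreviation: GI50, concentration required for 50% inhibition of growth.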 Active and inactive are the calls of the source. Rule as the data show it: active = GI50 up to about 1.1 µM and inactive = higher.

Tests used:
Assay in all cases: DTP human tumour cell line panel, 48 h
NCI-H522 = tested on: NCI-H522
OVCAR-5 = tested on: OVCAR-5
SW-620 = tested on: SW-620
BT-549 = tested on: BT-549
NCI-H226 = tested on: NCI-H226
HCT-116 = tested on: HCT-116
SNB-19 = tested on: SNB-19
SF-539 = tested on: SF-539
RXF 393 = tested on: RXF 393
UACC-62 = tested on: UACC-62
MDA-MB-231 = tested on: MDA-MB-231
NCI-H460 = tested on: NCI-H460
Malme-3M = tested on: Malme-3M
OVCAR-8 = tested on: OVCAR-8
NCI/ADR-RES = tested on: NCI/ADR-RES
MDA-N = tested on: MDA-N
SNB-75 = tested on: SNB-75
SK-MEL-5 = tested on: SK-MEL-5
CCRF-CEM = tested on: CCRF-CEM
MOLT-4 = tested on: MOLT-4
A549 = tested on: A549
MCF7 = tested on: MCF7
ACHN = tested on: ACHN
EKVX = tested on: EKVX
786-0 = tested on: 786-0
SF-268 = tested on: SF-268
RPMI-8226 = tested on: RPMI-8226
HT-29 = tested on: HT-29
DU-145 = tested on: DU-145
SK-MEL-2 = tested on: SK-MEL-2
SK-MEL-28 = tested on: SK-MEL-28
Hs-578T = tested on: Hs-578T
SF-295 = tested on: SF-295
OVCAR-3 = tested on: OVCAR-3
SN12C = tested on: SN12C
HOP-62 = tested on: HOP-62
A498 = tested on: A498
LOX IMVI = tested on: LOX IMVI
HL-60 = tested on: HL-60
SK-OV-3 = tested on: SK-OV-3
U-251 = tested on: U-251
SR = tested on: SR
UO-31 = tested on: UO-31
TK-10 = tested on: TK-10
HCT-15 = tested on: HCT-15
T47D = tested on: T47D
UACC-257 = tested on: UACC-257
IGROV-1 = tested on: IGROV-1
COLO 205 = tested on: COLO 205
PC-3 = tested on: PC-3
HOP-92 = tested on: HOP-92
M14 = tested on: M14
K562 = tested on: K562
NCI-H23 = tested on: NCI-H23
HCC 2998 = tested on: HCC 2998
OVCAR-4 = tested on: OVCAR-4
CAKI-1 = tested on: CAKI-1
MDA-MB-435 = tested on: MDA-MB-435
KM12 = tested on: KM12

With `Cc1c(C)c(C)c(CC2(C)CSC2)c(CC2(C)CSC2)c1C` as the compound, how does the GI50 (NCI-H522) read?
The GI50 was > 100 µM (inactive).

And the GI50 (OVCAR-5)?
The GI50 was > 100 µM (inactive).

And the GI50 (SW-620)?
The GI50 was > 100 µM (inactive).

And the GI50 (BT-549)?
The GI50 was > 100 µM (inactive).

And the GI50 (NCI-H226)?
Its GI50 is > 100 µM (inactive).

And the GI50 (HCT-116)?
The GI50 was > 100 µM (inactive).

And the GI50 (SNB-19)?
Its GI50 is > 100 µM (inactive).

And the GI50 (SF-539)?
The GI50 was > 100 µM (inactive).

What about the GI50 (RXF 393) of the same compound?
Its GI50 is > 100 µM (inactive).

And the GI50 (UACC-62)?
The GI50 was > 100 µM (inactive).

And the GI50 (MDA-MB-231)?
The GI50 was > 100 µM (inactive).

And the GI50 (NCI-H460)?
Its GI50 is > 100 µM (inactive).

What about the GI50 (Malme-3M) of the same compound?
The GI50 was > 100 µM (inactive).

What about the GI50 (OVCAR-8) of the same compound?
The GI50 was > 100 µM (inactive).

What about the GI50 (NCI/ADR-RES) of the same compound?
Its GI50 is > 100 µM (inactive).

What about the GI50 (MDA-N) of the same compound?
The GI50 was > 100 µM (inactive).

And the GI50 (SNB-75)?
Its GI50 is > 100 µM (inactive).

And the GI50 (SK-MEL-5)?
The GI50 was > 100 µM (inactive).

What about the GI50 (CCRF-CEM) of the same compound?
Its GI50 is > 100 µM (inactive).

What about the GI50 (MOLT-4) of the same compound?
Its GI50 is > 100 µM (inactive).

What about the GI50 (A549) of the same compound?
The GI50 was > 100 µM (inactive).

And the GI50 (MCF7)?
The GI50 was > 100 µM (inactive).

And the GI50 (ACHN)?
Its GI50 is > 100 µM (inactive).

What about the GI50 (EKVX) of the same compound?
The GI50 was > 100 µM (inactive).

What about the GI50 (786-0) of the same compound?
The GI50 was > 100 µM (inactive).

And the GI50 (SF-268)?
The GI50 was > 100 µM (inactive).

What about the GI50 (RPMI-8226) of the same compound?
The GI50 was > 100 µM (inactive).

And the GI50 (HT-29)?
The GI50 was > 100 µM (inactive).

And the GI50 (DU-145)?
The GI50 was > 100 µM (inactive).

And the GI50 (SK-MEL-2)?
Its GI50 is > 100 µM (inactive).

What about the GI50 (SK-MEL-28) of the same compound?
Its GI50 is > 100 µM (inactive).

And the GI50 (Hs-578T)?
The GI50 was > 100 µM (inactive).

What about the GI50 (SF-295) of the same compound?
The GI50 was > 100 µM (inactive).

And the GI50 (OVCAR-3)?
The GI50 was > 100 µM (inactive).

And the GI50 (SN12C)?
The GI50 was > 100 µM (inactive).

What about the GI50 (HOP-62) of the same compound?
Its GI50 is > 100 µM (inactive).

What about the GI50 (A498) of the same compound?
Its GI50 is > 100 µM (inactive).

What about the GI50 (LOX IMVI) of the same compound?
The GI50 was > 100 µM (inactive).

What about the GI50 (HL-60) of the same compound?
The GI50 was > 100 µM (inactive).

And the GI50 (SK-OV-3)?
The GI50 was > 100 µM (inactive).

And the GI50 (U-251)?
The GI50 was > 100 µM (inactive).

And the GI50 (SR)?
Its GI50 is > 100 µM (inactive).

What about the GI50 (UO-31) of the same compound?
The GI50 was > 100 µM (inactive).

And the GI50 (TK-10)?
Its GI50 is > 100 µM (inactive).

And the GI50 (HCT-15)?
The GI50 was over 100 µM.

And the GI50 (T47D)?
Its GI50 is > 100 µM (inactive).

What about the GI50 (UACC-257) of the same compound?
Its GI50 is > 100 µM (inactive).

What about the GI50 (IGROV-1) of the same compound?
Its GI50 is > 100 µM (inactive).

What about the GI50 (COLO 205) of the same compound?
The GI50 was > 100 µM (inactive).

What about the GI50 (PC-3) of the same compound?
Its GI50 is > 100 µM (inactive).

What about the GI50 (HOP-92) of the same compound?
The GI50 was > 100 µM (inactive).

What about the GI50 (M14) of the same compound?
Its GI50 is > 100 µM (inactive).

And the GI50 (K562)?
The GI50 was > 100 µM (inactive).

Which GI50 (NCI-H522) does the source give for `O=c1oc2ccc3ccccc3c2cc1-c1cn2c(n1)sc1ccccc12` here?
Its GI50 is > 100 µM (inactive).

What about the GI50 (OVCAR-5) of the same compound?
The GI50 was > 100 µM (inactive).

And the GI50 (SW-620)?
Its GI50 is > 100 µM (inactive).

What about the GI50 (BT-549) of the same compound?
Its GI50 is > 100 µM (inactive).

What about the GI50 (NCI-H226) of the same compound?
Its GI50 is > 100 µM (inactive).

What about the GI50 (HCT-116) of the same compound?
The GI50 was > 100 µM (inactive).

And the GI50 (SNB-19)?
Its GI50 is > 100 µM (inactive).

What about the GI50 (RXF 393) of the same compound?
Its GI50 is > 100 µM (inactive).

And the GI50 (UACC-62)?
The GI50 was 92.7 µM (inactive).

And the GI50 (MDA-MB-231)?
Its GI50 is > 100 µM (inactive).

What about the GI50 (NCI-H460) of the same compound?
The GI50 was > 100 µM (inactive).

What about the GI50 (Malme-3M) of the same compound?
The GI50 was > 100 µM (inactive).

What about the GI50 (OVCAR-8) of the same compound?
The GI50 was > 100 µM (inactive).

What about the GI50 (NCI/ADR-RES) of the same compound?
The GI50 was > 100 µM (inactive).

What about the GI50 (MDA-N) of the same compound?
The GI50 was > 100 µM (inactive).

What about the GI50 (SNB-75) of the same compound?
The GI50 was > 100 µM (inactive).

What about the GI50 (SK-MEL-5) of the same compound?
Its GI50 is > 100 µM (inactive).

What about the GI50 (CCRF-CEM) of the same compound?
Its GI50 is > 100 µM (inactive).

What about the GI50 (MOLT-4) of the same compound?
The GI50 was 3.06 µM (inactive).

What about the GI50 (A549) of the same compound?
Its GI50 is > 100 µM (inactive).

And the GI50 (MCF7)?
Its GI50 is 26.4 µM (inactive).

And the GI50 (ACHN)?
The GI50 was > 100 µM (inactive).

And the GI50 (EKVX)?
Its GI50 is 90.8 µM (inactive).

And the GI50 (786-0)?
Its GI50 is > 100 µM (inactive).

What about the GI50 (NCI-H23) of the same compound?
Its GI50 is > 100 µM (inactive).

What about the GI50 (SF-268) of the same compound?
The GI50 was > 100 µM (inactive).

And the GI50 (RPMI-8226)?
Its GI50 is > 100 µM (inactive).

What about the GI50 (HT-29) of the same compound?
The GI50 was > 100 µM (inactive).

And the GI50 (DU-145)?
Its GI50 is > 100 µM (inactive).

What about the GI50 (HCC 2998) of the same compound?
Its GI50 is > 100 µM (inactive).

And the GI50 (SK-MEL-2)?
The GI50 was > 100 µM (inactive).

And the GI50 (SK-MEL-28)?
Its GI50 is > 100 µM (inactive).

And the GI50 (Hs-578T)?
Its GI50 is > 100 µM (inactive).

What about the GI50 (SF-295) of the same compound?
The GI50 was > 100 µM (inactive).

And the GI50 (OVCAR-3)?
Its GI50 is > 100 µM (inactive).

What about the GI50 (HOP-62) of the same compound?
The GI50 was > 100 µM (inactive).

What about the GI50 (A498) of the same compound?
The GI50 was > 100 µM (inactive).

And the GI50 (LOX IMVI)?
Its GI50 is > 100 µM (inactive).

And the GI50 (HL-60)?
Its GI50 is > 100 µM (inactive).

And the GI50 (SK-OV-3)?
The GI50 was > 100 µM (inactive).

And the GI50 (OVCAR-4)?
The GI50 was > 100 µM (inactive).

And the GI50 (U-251)?
Its GI50 is > 100 µM (inactive).

And the GI50 (UO-31)?
Its GI50 is > 100 µM (inactive).

And the GI50 (TK-10)?
The GI50 was > 100 µM (inactive).

What about the GI50 (HCT-15) of the same compound?
The GI50 was over 100 µM.

And the GI50 (UACC-257)?
The GI50 was > 100 µM (inactive).

What about the GI50 (CAKI-1) of the same compound?
The GI50 was > 100 µM (inactive).

And the GI50 (MDA-MB-435)?
Its GI50 is > 100 µM (inactive).

And the GI50 (IGROV-1)?
The GI50 was > 100 µM (inactive).

What about the GI50 (COLO 205) of the same compound?
Its GI50 is > 100 µM (inactive).

And the GI50 (PC-3)?
Its GI50 is > 100 µM (inactive).

What about the GI50 (KM12) of the same compound?
Its GI50 is > 100 µM (inactive).

What about the GI50 (HOP-92) of the same compound?
The GI50 was 55.2 µM (inactive).

And the GI50 (M14)?
The GI50 was > 100 µM (inactive).

What about the GI50 (K562) of the same compound?
Its GI50 is 2.69 µM (inactive).
